The values that follow come from BindingDB's records for patent US20250313563 (The Broad Institute, 2025).

Values joined by “and” are separate entries in the source; they are usually repeats but may differ in a detail not shown here. Equal values may be shown once.

In test [1] the target is Glycogen synthase kinase-3 beta (Homo sapiens, UniProt P49841). Description: TR-FRET Assay. Put shortly:
(§1)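 Kinase activity, measured after a 30-minute compound preincubation, was stopped with EDTA and quantified by TR-FRET using a Tb-labelled pSer641 antibody paired with streptavidin-d2.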

For test [2], the target named is Glycogen synthase kinase-3 alpha (Homo sapiens, UniProt P49840). Description: TR-FRET Assay. Put shortly:
as §1
A general note: Time-resolved FRET reads energy transfer from a long-lived donor to a nearby acceptor.

Sequence of Glycogen synthase kinase-3 beta (P49841 whole entry): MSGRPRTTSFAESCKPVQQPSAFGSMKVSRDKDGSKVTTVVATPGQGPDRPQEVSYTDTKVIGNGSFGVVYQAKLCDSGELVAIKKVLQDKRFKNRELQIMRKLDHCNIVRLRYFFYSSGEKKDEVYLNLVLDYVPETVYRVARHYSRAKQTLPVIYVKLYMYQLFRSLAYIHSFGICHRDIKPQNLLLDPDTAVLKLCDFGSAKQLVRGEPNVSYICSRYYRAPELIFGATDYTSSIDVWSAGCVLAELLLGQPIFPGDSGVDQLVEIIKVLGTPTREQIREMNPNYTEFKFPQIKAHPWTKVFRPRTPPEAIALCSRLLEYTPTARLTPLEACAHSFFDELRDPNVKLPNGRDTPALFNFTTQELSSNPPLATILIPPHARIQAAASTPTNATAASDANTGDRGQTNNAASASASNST
Sequence of Glycogen synthase kinase-3 alpha (P49840 whole entry): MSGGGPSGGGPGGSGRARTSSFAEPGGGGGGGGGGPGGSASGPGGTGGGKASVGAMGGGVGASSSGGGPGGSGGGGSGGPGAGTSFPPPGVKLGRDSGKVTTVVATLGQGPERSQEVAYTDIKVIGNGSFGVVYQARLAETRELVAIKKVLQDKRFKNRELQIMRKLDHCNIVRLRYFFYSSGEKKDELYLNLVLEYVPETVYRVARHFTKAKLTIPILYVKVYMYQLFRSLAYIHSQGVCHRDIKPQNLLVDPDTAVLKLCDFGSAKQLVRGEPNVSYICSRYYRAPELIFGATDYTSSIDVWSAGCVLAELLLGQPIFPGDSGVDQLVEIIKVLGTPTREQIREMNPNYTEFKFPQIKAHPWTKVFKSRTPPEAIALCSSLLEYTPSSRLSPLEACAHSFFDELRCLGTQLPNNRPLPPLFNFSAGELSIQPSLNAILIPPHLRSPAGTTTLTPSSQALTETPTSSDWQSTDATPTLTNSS

The IC50 is the point on the concentration scale where inhibition reaches its midpoint. Low values mean higher potency, high ones lower potency. `CC[C@]1(c2cccc(-c3c(C#N)cnn3C)c2)C2=C(CC(C)(C)NC2=O)NC2N=NC(C)=C21` (some centres not stated) [US20250313563, Compound 952410]: the IC50 is < 0.1 µM and 1 to 5 µM in test [1]; < 0.1 µM and 0.1 to 1 µM in test [2].

Consider `CCC1(c2cccc(-c3ccnn3CCC(C)C)c2)C2=CN=NC2NC2=C1C(=O)CC(C)(C)C2` (configuration not stated) [US20250313563, Compound 929401], for which the 50% inhibitory concentration (IC50) in test [1] and in test [2] was < 0.1 µM in each case.

As for `CC1(C)CC(=O)C2=C(C1)NC1=C(CN=N1)C21CCN(S(=O)(=O)c2cn3c(n2)CCCC3)CC1` [US20250313563, Compound 947472], the IC50 in test [1] is 0.1 to 1 µM; in test [2] it was < 0.1 µM.

For the molecule `Cn1cc(-c2cccc([C@]3(C)C4=C(CC(C)(C)CC4=O)NC4=C3C(CC(C)(C)C)N=N4)c2)cn1` (some centres not stated) [US20250313563, Compound 126393], the IC50 lay within 0.1 to 1 µM in test [1] and 1 to 5 µM in test [2].

Take `CC1(C)CC(=O)C2=C(C1)NC1=C(CN=N1)C21COC2(CN(C(=O)C3(C)CCCC3)C2)C1` (configuration not stated) [US20250313563, Compound 947307]: the IC50 in test [1] and in test [2] was < 0.1 µM each time.

As for `CC[C@]1(c2cccc(N(C)c3cnccn3)c2)C2=CN=NC2NC2=C1C(=O)CC(C)(C)C2` (some centres not stated) [US20250313563, Compound 915316], the IC50 in test [1] and in test [2] was < 0.1 µM throughout.

Turning to `COc1ccc(S(=O)(=O)N2CCC3(CC2)C2=C(N=NC2)NC2=C3C(=O)CC(C)(C)C2)cc1` [US20250313563, Compound 901469], the 50% inhibitory concentration (IC50) in test [1] and in test [2] was 0.1 to 1 µM in each case.

As to `CCC1(c2cccc(OC)c2)C2=C(CC(C)(C)NC2=O)NC2N=NC(C(F)(F)F)=C21` (configuration not stated) [US20250313563, Compound 949748], the concentration for half-maximal inhibition (IC50) in test [1] was 0.1 to 1 µM; in test [2], < 0.1 µM.

On to `CC[C@@]1(c2cccc(S(=O)(=O)C3CC3)c2)C2=C(CC(C)(C)NC2=O)NC2N=NC(C(F)(F)F)=C21` (some centres not stated) [US20250313563, Compound 948776], for which the IC50 in test [1] and in test [2] was 0.1 to 1 µM each time.

As for `CC[C@@]1(c2cccc(-c3cnnc(C)c3)c2)C2=CN=NC2NC2=C1C(=O)CC(C)(C)C2` (some centres not stated) [US20250313563, Compound 943995], the IC50 is > 5 µM in test [1] and 0.1 to 1 µM in test [2].

On to `CO[C@H]1C[C@@]2(C1)C1=C(N=NC1)NC1=C2C(=O)CC(C)(C)C1` [US20250313563, Compound 901473], for which the IC50 in test [1] and in test [2] was > 5 µM throughout.

With `CC[C@]1(c2cccc(-c3cnn(-c4ccccc4)c3F)c2)C2=CN=NC2NC2=C1C(=O)NC(C)(C)C2` (some centres not stated) [US20250313563, Compound 949519], the IC50 in test [1] and in test [2] was > 5 µM each time.

`CC1(C)CC(=O)C2=C(C1)NC1=C(CN=N1)[C@]21COC2(CN(C(=O)C(C)(F)F)C2)C1` [US20250313563, Compound 947838]: the IC50 in test [1] and in test [2] was < 0.1 µM throughout.

For the molecule `CC[C@]1(c2cccc(N(C)c3cc(C)ccn3)c2)C2=CN=NC2NC2=C1C(=O)CC(C)(C)C2` (some centres not stated) [US20250313563, Compound 945616], the IC50 in test [1] and in test [2] was > 5 µM in each case.

In the case of `CC[C@@]1(c2ccccc2)C2=CN=NC2NC2=C1C(=O)CC(C)(C)[C@@H]2F` (some centres not stated) [US20250313563, Compound 957199], the IC50 in test [1] and in test [2] was > 5 µM each time.

For the molecule `C[C@@H]1CC[C@]2(C1)C1=C(N=NC1)NC1=C2C(=O)CC(C)(C)C1` [US20250313563, Compound 883841], the IC50 in test [1] and in test [2] was 0.1 to 1 µM throughout.

In the case of `COc1cccc(S(=O)(=O)N2CCCC3(CC2)C2=CN=NC2NC2=C3C(=O)CC(C)(C)C2)c1` (configuration not stated) [US20250313563, Compound 917140], the values for the 50% inhibitory concentration (IC50) in test [1] and in test [2] were 0.1 to 1 µM and < 0.1 µM, respectively.

`CC[C@]1(c2cccc(-c3cc(C)nnc3C)c2)C2=CN=NC2NC2=C1C(=O)NC(C)(C)C2` (some centres not stated) [US20250313563, Compound 949334]: the 50% inhibitory concentration (IC50) was > 5 µM in test [1] and 1 to 5 µM in test [2].

For the molecule `CC1(C)CC(=O)C2=C(C1)NC1=C(CN=N1)C21CN(CC(F)F)C1` [US20250313563, Compound 912073], the IC50 in test [1] and in test [2] was 0.1 to 1 µM throughout.

In the case of `CC[C@@]1(c2cccc(C(F)(F)F)c2)C2=CN=NC2NC2=C1C(=O)C[C@H](C)C2` (some centres not stated) [US20250313563, Compound 810452], the IC50 in test [1] lay within 1 to 5 µM; in test [2], 0.1 to 1 µM.

Consider `CC1(C)CC(=O)C2=C(C1)NC1=C(CN=N1)C21CCN(CC(F)F)CC1` [US20250313563, Compound 883962], for which the IC50 in test [1] and in test [2] was 0.1 to 1 µM throughout.

Regarding `CC(C)(C)CC1=C2C(N=N1)NC1=C(C(=O)CC(C)(C)C1)[C@]21CCCc2ccccc21` (some centres not stated) [US20250313563, Compound 811595], the IC50 in test [1] is < 0.1 µM; in test [2], 0.1 to 1 µM.

As for `CC[C@]1(c2ccccc2)C2=C(N=NC2)NC2=C1C(=O)[C@@H]1CC[C@H]2C1` [US20250313563, Compound 791270], the results for the IC50 in test [1] and in test [2] were > 1.7 µM and 0.1 to 1 µM, respectively.

Take `CC1(C)CC2=C(C(=O)[C@H]1F)[C@]1(CC[C@H](C(F)(F)F)CC1)C1=C(N=NC1)N2` [US20250313563, Compound 918282]: the IC50 in test [1] and in test [2] was < 0.1 µM each time.

Take `CC(C)[C@@H]1C[C@]2(CCO1)C1=C(N=NC1)NC1=C2C(=O)CC(C)(C)C1` [US20250313563, Compound 884013]: the figures for the IC50 in test [1] and in test [2] were > 5 µM and 1 to 5 µM, respectively.

On to `CCC1(c2cccc(N(C)c3cccnc3)c2)C2=CN=NC2NC2=C1C(=O)CC(C)(C)C2` (configuration not stated) [US20250313563, Compound 865168], for which the IC50 in test [1] and in test [2] was < 0.1 µM each time.

As for `Cn1nccc1S(=O)(=O)N1CCC2(CC1)C1=C(N=NC1)NC1=C2C(=O)CC(C)(C)C1` [US20250313563, Compound 932649], the IC50 in test [1] and in test [2] was < 0.1 µM in each case.

In the case of `CC1(C)CC(=O)C2=C(C1)NC1=C(CN=N1)[C@]21CCO[C@@H](C(F)(F)F)C1` [US20250313563, Compound 884021], the IC50 in test [1] and in test [2] was 0.1 to 1 µM in each case.

As to `CCC1(COCc2ccccc2)C2=C(N=NC2)NC2=C1C(=O)CC(C)(C)C2` (configuration not stated) [US20250313563, Compound 874313], the IC50 in test [1] and in test [2] was 1 to 5 µM in each case.

As to `CCC1(c2cccc(-c3cc(C)nc(OC(F)F)c3)c2)C2=CN=NC2NC2=C1C(=O)CC(C)(C)C2` (configuration not stated) [US20250313563, Compound 945463], the half-inhibitory concentration (IC50) was in the range of 1 to 5 µM in test [1] and 0.1 to 1 µM in test [2].

In the case of `C[C@H]1CC[C@]2(C1)C1=C(N=NC1)NC1=C2C(=O)CC(C)(C)C1` [US20250313563, Compound 897751], the IC50 in test [1] is 0.1 to 1 µM; in test [2], < 0.1 µM.

`CC[C@@]1(c2cccc(C3CCOCC3)c2)C2=CN=NC2NC2=C1C(=O)CC(C)(C)C2` (some centres not stated) [US20250313563, Compound 819639]: the IC50 in test [1] is > 5 µM; in test [2], 1 to 5 µM.

`CC(C)(C)CC1N=NC2=C1[C@](C)(c1cccc(S(=O)(=O)N3CCCC3)c1)C1=C(CC(C)(C)NC1=O)N2` (some centres not stated) [US20250313563, Compound 108791]: the IC50 in test [1] was 0.1 to 1 µM; in test [2], 1 to 5 µM.

Take `CCC1(c2cccc(-c3cc(C)nn3C)c2)C2=C(CC(C)(C)CC2=O)NC2N=NC(C(F)(F)F)=C21` (configuration not stated) [US20250313563, Compound 945532]: the IC50 in test [1] is < 0.1 µM and 0.1 to 1 µM; in test [2], < 0.1 µM.

`CC1CCC(C(=O)N2CC3(C2)CC2(CO3)C3=C(N=NC3)NC3=C2C(=O)CC(C)(C)C3)C1` (configuration not stated) [US20250313563, Compound 947268]: the IC50 in test [1] and in test [2] was < 0.1 µM each time.

Regarding `CCC1(c2cccc(-c3ccnc(C(C)O)c3)c2)C2=CN=NC2NC2=C1C(=O)CC(C)(C)C2` (configuration not stated) [US20250313563, Compound 944029], the IC50 in test [1] was 0.1 to 1 µM; in test [2] it was < 0.1 µM.

As to `CCC1(c2cccc(Cl)c2)C2=C(CC(C)(C)CC2=O)NC2N=NC(C(F)(F)F)=C21` (configuration not stated) [US20250313563, Compound 789566], the 50% inhibitory concentration (IC50) in test [1] and in test [2] was < 0.1 µM in each case.

Consider `CCC1(c2cccc(N(C)C(=O)C3CCN(C)CC3)c2)C2=CN=NC2NC2=C1C(=O)CC(C)(C)C2` (configuration not stated) [US20250313563, Compound 912167], for which the IC50 in test [1] lay in the range of 1 to 5 µM; in test [2], 0.1 to 1 µM.

Consider `CC[C@@]1(c2cccc(N3CCCc4ncccc43)c2)C2=CN=NC2NC2=C1C(=O)CC(C)(C)C2` (some centres not stated) [US20250313563, Compound 917079], for which the IC50 was in the range of 1 to 5 µM in test [1] and 0.1 to 1 µM in test [2].

As for `COc1ccccc1S(=O)(=O)N1CCCC2(CC1)C1=CN=NC1NC1=C2C(=O)CC(C)(C)C1` (configuration not stated) [US20250313563, Compound 917142], the IC50 in test [1] was 0.1 to 1 µM; in test [2], < 0.1 µM.

Consider `CC[C@@]1(c2cccc(C3CC3)c2)C2=CN=NC2NC2=C1C(=O)CC(C)(C)C2` (some centres not stated) [US20250313563, Compound 811558], for which the IC50 in test [1] was > 5 µM; in test [2], 1 to 5 µM.

On to `CCC1(c2cccc(S(=O)(=O)C(C)C)c2)C2=CN=NC2NC2=C1C(=O)NC(C)(C)C2` (configuration not stated) [US20250313563, Compound 945464], for which the IC50 in test [1] and in test [2] was < 0.1 µM in each case.

On to `CC[C@]1(c2cccc(-c3ccncc3C(F)(F)F)c2)C2=CN=NC2NC2=C1C(=O)CC(C)(C)C2` (some centres not stated) [US20250313563, Compound 943918], for which the IC50 in test [1] was 1 to 5 µM; in test [2], 0.1 to 1 µM.

Take `CC(C)c1nc(S(=O)(=O)N2CCC3(CC2)C2=C(N=NC2)NC2=C3C(=O)CC(C)(C)C2)cn1C` [US20250313563, Compound 945663]: the 50% inhibitory concentration (IC50) in test [1] and in test [2] was < 0.1 µM throughout.

For `CCC1(c2cccc(-c3ccncc3C)c2)C2=CN=NC2NC2=C1C(=O)NC(C)(C)C2` (configuration not stated) [US20250313563, Compound 945461], the IC50 in test [1] and in test [2] was < 0.1 µM throughout.

With `CC1(C)CC(=O)C2=C(C1)NC1N=NC(C(F)(F)F)=C1C21CCCOc2ccccc21` (configuration not stated) [US20250313563, Compound 790632], the concentration for half-maximal inhibition (IC50) in test [1] and in test [2] was > 5 µM in each case.
